# Results from ChEMBL document CHEMBL1201862, “PubChem BioAssay data set” (2004).
# Active and inactive are the calls of the source.
# Columns and labels:
# HeLa = experiment: HeLa cell cytotoxicity, dose response, cytotoxicity control for MITF activator project, CellTiter-Glo luminescence, cherry-pick samples (AID 540259); assay type: functional, cell-based; details: Homo sapiens
# Cytochrome P450 1A2 = molecular target: T1, Cytochrome P450 1A2 (Homo sapiens, UniProt P05177);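 further: PubChem cytochrome P450 panel assay, CYP1A2 panel member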
# T1 sequence (P05177 whole entry): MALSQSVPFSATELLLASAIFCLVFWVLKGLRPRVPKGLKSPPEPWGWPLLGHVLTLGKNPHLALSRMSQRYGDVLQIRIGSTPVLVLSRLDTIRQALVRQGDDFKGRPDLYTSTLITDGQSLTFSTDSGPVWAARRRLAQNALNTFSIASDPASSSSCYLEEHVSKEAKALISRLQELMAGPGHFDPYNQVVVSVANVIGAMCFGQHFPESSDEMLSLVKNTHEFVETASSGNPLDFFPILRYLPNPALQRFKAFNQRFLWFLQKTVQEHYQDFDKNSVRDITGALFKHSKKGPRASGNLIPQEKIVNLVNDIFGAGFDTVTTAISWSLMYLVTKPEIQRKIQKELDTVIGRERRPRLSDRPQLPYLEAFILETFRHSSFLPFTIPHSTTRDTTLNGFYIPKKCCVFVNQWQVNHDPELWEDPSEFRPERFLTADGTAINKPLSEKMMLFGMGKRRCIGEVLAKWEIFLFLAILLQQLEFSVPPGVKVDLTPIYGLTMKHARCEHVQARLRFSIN
# Escherichia coli = experiment: microbe, parasite or virus in culture
# [1] = HEp-2 cell cytotoxicity, dose response, cytotoxicity control for RSV inhibitor project, HTS (AID 2410); assay type: functional; details: human respiratory syncytial virus
# [2] = inhibitors of firefly luciferase expression or activity, dose response, H4 neuroglioma cells, luminescence (AID 1990); assay type: functional, cell-based
# [3] = Luminescence Cell-Based Dose Response HTS to Identify Inhibitors of 5'UTR Stem-Loop Driven Prion Protein mRNA Translation in H4 Neuroglioblastoma Cells. [Related pubchem assays: 1827 (Project Summary), 1813 (Primary HTS)]; assay type: functional
# [4] = inhibitors of SNCA 5'UTR-driven reporter translation, confirmation, H4 neuroglioma cells, luminescence (AID 1988); assay type: functional, cell-based
# [5] = inhibitors of intracellular T. cruzi replication, confirmation, NIH3T3 host cells, beta-gal luminescence (AID 2044); assay type: functional, cell-based;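 further: intracellular parasites grown in NIH/3T3 mouse fibroblasts as host cells; luminescent beta-galactosidase reporter signal from transgenic T. cruzi replicating inside host cells; inhibitors lower the luminescence signal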
# [6] = cytotoxicity toward NIH3T3 fibroblasts, dose response, counter-screen, cell-based, ATP luminescence, mouse fibroblasts (AID 2010); assay type: functional;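 further: cells exposed to compound for about 90 hours before reading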
# Cysteine protease ATG4B = molecular target: T2, Cysteine protease ATG4B (Homo sapiens, UniProt Q9Y4P1); assay type: functional;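 further: Fluorescence-based dose-response confirmation assay measuring inhibition of ATG4B activity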
# T2 sequence (Q9Y4P1 whole entry): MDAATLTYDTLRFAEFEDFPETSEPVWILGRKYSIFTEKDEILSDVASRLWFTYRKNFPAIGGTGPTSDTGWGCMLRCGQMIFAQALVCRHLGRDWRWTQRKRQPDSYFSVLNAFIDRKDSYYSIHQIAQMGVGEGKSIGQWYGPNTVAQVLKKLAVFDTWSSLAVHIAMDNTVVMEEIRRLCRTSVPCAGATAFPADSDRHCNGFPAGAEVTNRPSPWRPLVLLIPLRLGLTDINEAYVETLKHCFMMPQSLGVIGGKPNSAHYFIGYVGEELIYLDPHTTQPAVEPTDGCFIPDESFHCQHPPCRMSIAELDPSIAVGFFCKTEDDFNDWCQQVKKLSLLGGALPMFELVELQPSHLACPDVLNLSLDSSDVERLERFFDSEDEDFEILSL
# Phospholipase A2 = Phospholipase A2 (Homo sapiens, UniProt P04054); assay type: functional;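 further: confirmatory dose-response counterscreen on phospholipase A2, testing hits that came from an ultra-high-throughput screen for ATG4B inhibitors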
# Sequence of Phospholipase A2 (P04054 whole entry): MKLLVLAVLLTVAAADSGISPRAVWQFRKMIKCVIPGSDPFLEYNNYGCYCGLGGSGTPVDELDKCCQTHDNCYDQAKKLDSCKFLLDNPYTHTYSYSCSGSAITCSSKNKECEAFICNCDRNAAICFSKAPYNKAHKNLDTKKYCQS
# Vero = experiment: cells; assay type: functional, cell-based; details: Chlorocebus sabaeus
# cells [7] = experiment: cells
# Melanocortin receptor 4 = Melanocortin receptor 4 (Homo sapiens, UniProt P32245); assay type: functional, cell-based;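 further: Cell-based assay with luminescence read-out, confirmatory dose-response testing for agonist activity of biased ligands at MC4R; human U2OS cells with tagged receptor and beta-arrestin; potency of agonists that increase receptor coupling to beta-arrestin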
# Protein Wnt-3a = Protein Wnt-3a (Mus musculus, UniProt P27467); experiment: Wnt3a-driven reporter signaling inhibition, dose response, selectivity assay for Gli-SUFU antagonist project, Wnt-LIGHT cells, luminescence (AID 651570); assay type: functional; details: read-out: IC50_Mean;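 further: Wnt-LIGHT reporter cells stimulated with conditioned medium from Wnt3a-producing cells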
# Sequence of Protein Wnt-3a (P27467 whole entry): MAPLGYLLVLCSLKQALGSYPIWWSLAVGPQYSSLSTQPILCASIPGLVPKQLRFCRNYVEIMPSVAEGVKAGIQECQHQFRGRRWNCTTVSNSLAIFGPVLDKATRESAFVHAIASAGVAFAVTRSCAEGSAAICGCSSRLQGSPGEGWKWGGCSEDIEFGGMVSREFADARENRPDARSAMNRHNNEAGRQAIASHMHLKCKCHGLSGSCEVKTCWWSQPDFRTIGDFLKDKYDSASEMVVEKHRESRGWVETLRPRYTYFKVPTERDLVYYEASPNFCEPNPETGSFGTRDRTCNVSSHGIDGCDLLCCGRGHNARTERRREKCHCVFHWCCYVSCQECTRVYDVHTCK
# Cytochrome P450 3A4 [8] = molecular target: T3, Cytochrome P450 3A4 (Homo sapiens, UniProt P08684); details: Potency
# T3 sequence (P08684 whole entry): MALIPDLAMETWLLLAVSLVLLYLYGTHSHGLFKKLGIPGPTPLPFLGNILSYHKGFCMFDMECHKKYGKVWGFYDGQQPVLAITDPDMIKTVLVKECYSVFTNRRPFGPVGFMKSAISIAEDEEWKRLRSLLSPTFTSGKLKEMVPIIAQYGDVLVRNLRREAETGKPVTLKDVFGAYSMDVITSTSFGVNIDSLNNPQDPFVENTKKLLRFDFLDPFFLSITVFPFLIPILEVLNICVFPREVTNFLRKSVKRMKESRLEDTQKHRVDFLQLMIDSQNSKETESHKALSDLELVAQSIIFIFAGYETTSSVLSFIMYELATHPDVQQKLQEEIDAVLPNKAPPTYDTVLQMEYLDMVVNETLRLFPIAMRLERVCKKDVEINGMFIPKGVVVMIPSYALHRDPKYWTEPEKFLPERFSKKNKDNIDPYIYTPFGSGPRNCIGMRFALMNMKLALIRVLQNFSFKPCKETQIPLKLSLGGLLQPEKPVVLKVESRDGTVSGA
# [9] = molecular target: Voltage-gated inwardly rectifying potassium channel KCNH2 (Homo sapiens, UniProt Q12809); details: Potency;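 further: confirmatory quantitative high-throughput screen measuring inhibition of hERG channel activity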
# Sequence of Voltage-gated inwardly rectifying potassium channel KCNH2 (Q12809 whole entry): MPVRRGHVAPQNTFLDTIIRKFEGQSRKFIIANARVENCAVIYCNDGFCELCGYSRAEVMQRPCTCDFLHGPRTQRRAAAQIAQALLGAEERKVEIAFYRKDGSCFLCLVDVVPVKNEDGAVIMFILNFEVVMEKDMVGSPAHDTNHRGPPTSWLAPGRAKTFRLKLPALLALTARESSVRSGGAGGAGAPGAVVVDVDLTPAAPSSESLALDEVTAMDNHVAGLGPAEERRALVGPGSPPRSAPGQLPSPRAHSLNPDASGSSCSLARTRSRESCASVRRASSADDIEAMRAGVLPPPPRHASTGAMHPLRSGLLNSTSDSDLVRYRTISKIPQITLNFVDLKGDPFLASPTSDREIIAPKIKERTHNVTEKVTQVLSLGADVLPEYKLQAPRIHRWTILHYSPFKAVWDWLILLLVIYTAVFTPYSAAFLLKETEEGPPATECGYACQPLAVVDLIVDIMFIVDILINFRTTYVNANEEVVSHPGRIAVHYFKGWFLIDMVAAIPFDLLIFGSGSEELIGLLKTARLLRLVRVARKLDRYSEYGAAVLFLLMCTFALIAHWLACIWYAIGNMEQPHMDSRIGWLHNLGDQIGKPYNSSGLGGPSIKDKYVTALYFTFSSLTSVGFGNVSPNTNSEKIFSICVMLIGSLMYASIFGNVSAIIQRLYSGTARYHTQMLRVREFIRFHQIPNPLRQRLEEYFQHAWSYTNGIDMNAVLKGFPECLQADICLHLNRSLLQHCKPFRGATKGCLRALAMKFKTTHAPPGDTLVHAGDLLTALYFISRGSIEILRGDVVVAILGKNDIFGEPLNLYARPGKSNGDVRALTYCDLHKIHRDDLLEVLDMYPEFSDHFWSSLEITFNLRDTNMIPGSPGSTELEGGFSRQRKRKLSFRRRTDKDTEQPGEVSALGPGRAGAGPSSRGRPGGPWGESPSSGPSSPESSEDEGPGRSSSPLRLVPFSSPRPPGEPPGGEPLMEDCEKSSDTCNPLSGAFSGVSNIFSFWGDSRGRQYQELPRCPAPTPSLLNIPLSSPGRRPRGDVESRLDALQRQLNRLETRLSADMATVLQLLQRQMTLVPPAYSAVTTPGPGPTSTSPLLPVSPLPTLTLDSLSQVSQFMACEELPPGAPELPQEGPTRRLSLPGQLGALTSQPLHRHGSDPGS
# [10] = molecular target: T4, Corticotropin-releasing factor receptor 2/Corticotropin-releasing factor-binding protein (Homo sapiens, UniProt P24387+Q13324); experiment: activators of CRF receptor 2 with binding protein – uHTS hits, confirmation (AID 602473); assay type: functional; details: read-out: EC50_Mean
# T4 sequence (Q13324 whole entry): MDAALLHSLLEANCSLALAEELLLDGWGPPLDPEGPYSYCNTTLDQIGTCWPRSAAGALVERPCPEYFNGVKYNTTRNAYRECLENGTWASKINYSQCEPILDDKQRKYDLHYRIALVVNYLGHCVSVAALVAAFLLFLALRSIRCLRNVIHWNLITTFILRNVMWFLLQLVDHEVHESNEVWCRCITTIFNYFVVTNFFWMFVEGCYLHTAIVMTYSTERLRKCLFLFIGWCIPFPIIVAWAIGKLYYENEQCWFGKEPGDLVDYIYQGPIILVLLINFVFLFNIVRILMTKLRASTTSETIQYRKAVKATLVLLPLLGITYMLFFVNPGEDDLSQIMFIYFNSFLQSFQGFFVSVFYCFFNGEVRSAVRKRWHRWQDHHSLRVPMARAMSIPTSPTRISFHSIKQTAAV
# T4 sequence (P24387 whole entry): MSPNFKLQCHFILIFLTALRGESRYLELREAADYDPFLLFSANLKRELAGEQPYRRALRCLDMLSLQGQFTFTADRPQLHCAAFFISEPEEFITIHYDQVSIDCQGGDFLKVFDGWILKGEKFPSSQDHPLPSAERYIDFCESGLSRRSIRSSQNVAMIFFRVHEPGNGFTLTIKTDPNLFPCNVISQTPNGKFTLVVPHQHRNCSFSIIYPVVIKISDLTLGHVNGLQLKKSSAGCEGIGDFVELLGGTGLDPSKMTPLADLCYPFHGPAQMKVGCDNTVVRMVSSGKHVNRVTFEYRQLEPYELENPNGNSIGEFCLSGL
# [11] = HeLa cell cytotoxicity, dose response, cytotoxicity control for MgcRacGAP inhibitor project (AID 624300); assay type: functional
# [12] = molecular target: T5, Rac GTPase-activating protein 1 (Homo sapiens, UniProt Q9H0H5); experiment: MgcRacGAP GTPase-activating activity inhibitors, confirmation, biochemical, ADP Hunter fluorescence, primary and confirmatory (AID 624330); assay type: functional
# T5 sequence (Q9H0H5 whole entry): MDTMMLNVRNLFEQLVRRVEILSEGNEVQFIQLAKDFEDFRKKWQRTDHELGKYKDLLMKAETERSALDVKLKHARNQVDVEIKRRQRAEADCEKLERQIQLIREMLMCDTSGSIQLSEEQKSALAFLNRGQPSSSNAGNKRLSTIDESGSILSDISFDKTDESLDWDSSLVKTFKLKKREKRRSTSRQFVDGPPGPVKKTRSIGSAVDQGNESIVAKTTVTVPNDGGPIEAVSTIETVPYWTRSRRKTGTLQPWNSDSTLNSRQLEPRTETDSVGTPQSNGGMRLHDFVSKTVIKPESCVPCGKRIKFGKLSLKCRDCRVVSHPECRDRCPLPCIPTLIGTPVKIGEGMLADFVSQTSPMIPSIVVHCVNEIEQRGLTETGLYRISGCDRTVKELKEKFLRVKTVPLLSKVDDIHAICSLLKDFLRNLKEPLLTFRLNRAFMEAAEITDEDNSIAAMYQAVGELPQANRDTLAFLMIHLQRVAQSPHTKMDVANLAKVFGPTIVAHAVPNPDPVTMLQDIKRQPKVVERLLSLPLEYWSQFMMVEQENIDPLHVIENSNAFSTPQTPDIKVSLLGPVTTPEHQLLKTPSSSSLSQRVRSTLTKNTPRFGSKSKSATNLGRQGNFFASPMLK
# [13] = molecular target: 26S proteasome non-ATPase regulatory subunit 14 (Homo sapiens, UniProt O00487); experiment: inhibition of proteasome subunit RPN11 – biochemical, fluorescence polarization, uHTS hits, confirmation (AID 602368); assay type: functional
# Sequence of 26S proteasome non-ATPase regulatory subunit 14 (O00487 whole entry): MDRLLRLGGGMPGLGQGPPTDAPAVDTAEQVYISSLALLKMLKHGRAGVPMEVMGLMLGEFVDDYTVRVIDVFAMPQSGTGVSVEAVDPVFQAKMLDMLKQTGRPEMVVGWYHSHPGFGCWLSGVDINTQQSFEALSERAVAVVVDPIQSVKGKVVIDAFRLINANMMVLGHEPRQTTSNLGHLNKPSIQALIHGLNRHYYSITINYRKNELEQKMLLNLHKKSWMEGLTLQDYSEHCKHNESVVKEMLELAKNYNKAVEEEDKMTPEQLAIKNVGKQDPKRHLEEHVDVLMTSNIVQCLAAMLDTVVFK
# [14] = molecular target: 72 kDa type IV collagenase (Homo sapiens, UniProt P08253); experiment: Dose Response validation of uHTS RPN11 inhibitor hits using a MMP-2 Fluorescence assay.; assay type: functional
# Sequence of 72 kDa type IV collagenase (P08253 whole entry): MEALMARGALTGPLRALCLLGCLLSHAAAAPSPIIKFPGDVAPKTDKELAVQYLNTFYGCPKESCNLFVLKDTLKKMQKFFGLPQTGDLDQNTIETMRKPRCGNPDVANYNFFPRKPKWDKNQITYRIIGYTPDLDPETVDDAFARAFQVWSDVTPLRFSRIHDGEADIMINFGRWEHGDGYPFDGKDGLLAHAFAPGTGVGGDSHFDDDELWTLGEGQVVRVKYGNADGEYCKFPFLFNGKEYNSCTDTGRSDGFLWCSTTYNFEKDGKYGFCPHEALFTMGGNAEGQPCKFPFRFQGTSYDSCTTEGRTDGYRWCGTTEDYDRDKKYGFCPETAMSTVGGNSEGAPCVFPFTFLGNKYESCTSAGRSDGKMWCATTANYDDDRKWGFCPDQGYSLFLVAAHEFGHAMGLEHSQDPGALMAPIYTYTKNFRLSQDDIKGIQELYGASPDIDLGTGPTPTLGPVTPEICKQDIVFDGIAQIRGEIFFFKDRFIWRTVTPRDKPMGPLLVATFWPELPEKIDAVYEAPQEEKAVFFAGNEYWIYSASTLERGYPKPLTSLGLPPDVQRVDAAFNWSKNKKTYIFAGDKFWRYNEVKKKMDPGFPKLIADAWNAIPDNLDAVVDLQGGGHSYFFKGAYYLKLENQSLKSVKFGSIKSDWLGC
# Prothrombin = Prothrombin (Bos taurus, UniProt P00735); experiment: thrombin inhibition, dose response, biochemical, fluorescence polarization, uHTS hits (AID 602369); assay type: functional
# cells [15] = assay type: functional, cell-based
# cells [16] = assay type: functional, cell-based; remark: listed apart in the source
# [17] = molecular target: Dual specificity tyrosine-phosphorylation-regulated kinase 1A (Rattus norvegicus, UniProt Q63470); assay type: biochemical, Homo sapiens
# [18] = P. falciparum Dd2 growth inhibitors, dose response, SYBR Green, cherry-picked samples (AID 1159567); assay type: functional, cell-based
# [19] = cytotoxicity in HEK-293T cells, dose response, cytotoxicity control for TCR NF-kB inhibitor project, luminescence, T-cell screen hits (AID 489026); assay type: functional, cell-based;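 further: cells exposed to compound about 14 hours before the viability readout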
# Cytochrome P450 2D6 = Cytochrome P450 2D6 (Homo sapiens, UniProt P10635);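 further: CYP2D6 member of a cytochrome P450 panel assay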
# Sequence of Cytochrome P450 2D6 (P10635 whole entry): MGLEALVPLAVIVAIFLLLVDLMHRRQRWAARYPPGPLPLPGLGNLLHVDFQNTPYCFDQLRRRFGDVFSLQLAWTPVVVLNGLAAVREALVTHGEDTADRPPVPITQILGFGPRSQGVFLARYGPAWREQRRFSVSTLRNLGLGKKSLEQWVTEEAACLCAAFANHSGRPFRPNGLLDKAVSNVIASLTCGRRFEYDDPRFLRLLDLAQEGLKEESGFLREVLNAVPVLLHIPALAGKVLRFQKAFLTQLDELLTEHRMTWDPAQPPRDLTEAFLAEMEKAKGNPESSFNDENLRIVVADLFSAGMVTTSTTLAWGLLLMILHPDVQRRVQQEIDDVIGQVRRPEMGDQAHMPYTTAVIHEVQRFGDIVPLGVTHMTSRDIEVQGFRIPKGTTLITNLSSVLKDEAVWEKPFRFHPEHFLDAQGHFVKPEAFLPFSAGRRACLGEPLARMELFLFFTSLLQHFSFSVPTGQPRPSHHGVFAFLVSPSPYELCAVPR
# Cytochrome P450 3A4 [20] = molecular target: T3, Cytochrome P450 3A4
# Cytochrome P450 2C9 = Cytochrome P450 2C9 (Homo sapiens, UniProt P11712)
# Sequence of Cytochrome P450 2C9 (P11712 whole entry): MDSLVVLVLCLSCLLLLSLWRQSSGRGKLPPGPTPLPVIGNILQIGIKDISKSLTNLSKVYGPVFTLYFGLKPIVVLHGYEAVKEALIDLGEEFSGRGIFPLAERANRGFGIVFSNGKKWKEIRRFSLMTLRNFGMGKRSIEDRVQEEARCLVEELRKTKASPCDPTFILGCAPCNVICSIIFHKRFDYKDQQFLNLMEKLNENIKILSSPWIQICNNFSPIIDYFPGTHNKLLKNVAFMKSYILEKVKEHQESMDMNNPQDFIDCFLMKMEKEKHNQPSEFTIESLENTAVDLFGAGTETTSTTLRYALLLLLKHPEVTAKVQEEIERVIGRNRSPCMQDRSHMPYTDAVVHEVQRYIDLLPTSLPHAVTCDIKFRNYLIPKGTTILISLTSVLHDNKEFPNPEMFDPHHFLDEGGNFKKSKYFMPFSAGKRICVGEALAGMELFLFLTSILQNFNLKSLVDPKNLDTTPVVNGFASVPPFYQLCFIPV
# Large T antigen = Large T antigen (Simian virus 40, UniProt P03070); assay type: functional, Betapolyomavirus macacae;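 further: Confirmatory-stage PubChem screen for compounds that inhibit SV40 T antigen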
# Sequence of Large T antigen (P03070 whole entry): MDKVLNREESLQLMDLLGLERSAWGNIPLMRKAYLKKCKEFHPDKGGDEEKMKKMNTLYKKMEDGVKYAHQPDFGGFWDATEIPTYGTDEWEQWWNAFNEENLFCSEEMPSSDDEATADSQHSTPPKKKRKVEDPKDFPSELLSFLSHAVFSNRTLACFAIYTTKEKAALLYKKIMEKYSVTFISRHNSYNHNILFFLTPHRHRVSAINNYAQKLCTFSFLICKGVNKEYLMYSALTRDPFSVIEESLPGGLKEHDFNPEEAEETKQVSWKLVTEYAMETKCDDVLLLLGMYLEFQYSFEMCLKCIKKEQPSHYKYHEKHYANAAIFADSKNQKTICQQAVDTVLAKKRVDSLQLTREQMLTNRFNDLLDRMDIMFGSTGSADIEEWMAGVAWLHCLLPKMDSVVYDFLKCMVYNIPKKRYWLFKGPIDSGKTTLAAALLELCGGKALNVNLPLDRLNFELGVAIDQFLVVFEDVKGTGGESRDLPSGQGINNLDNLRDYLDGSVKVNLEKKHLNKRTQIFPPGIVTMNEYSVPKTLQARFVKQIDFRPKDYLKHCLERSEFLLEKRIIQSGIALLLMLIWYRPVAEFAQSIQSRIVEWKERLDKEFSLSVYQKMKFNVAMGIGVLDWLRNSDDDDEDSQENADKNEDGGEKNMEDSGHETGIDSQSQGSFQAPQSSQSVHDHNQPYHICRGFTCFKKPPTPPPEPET
compound,measurement,setting,value
CCn1c(/C=C/c2c[nH]c3ccccc23)nc2ccccc2c1=O,AC50,HeLa,50.7 µM (active)
c1ccc(-c2ccc(-c3cnc4n3CCCCC4)cc2)cc1,AC50,HeLa,37.5 µM (active)
O=C(Nc1ccc2c(c1)CCC2)c1c(F)cccc1Cl,AC50,HeLa,> 350 µM (inactive)
COc1ccccc1C(=O)Nc1ccc2c(C)cc(=O)oc2c1,AC50,HeLa,51.7 µM (active)
Cc1ccc(OCCNC(=O)c2cc(-n3cnnc3)ccc2Cl)cc1C,AC50,Cytochrome P450 1A2,28.2 µM (inconclusive)
same,AC50,Escherichia coli,51 µM (active)
Fc1ccc(C2c3[nH]c4ccccc4c3CCN2Cc2cccn2-c2ncccn2)cc1 (configuration not stated),CC50,[1],24 µM (active)
same,EC50,[2],14.6 µM (active)
same,EC50,[3],13.1 µM (active)
same,EC50,[4],> 120 µM (not active)
same,EC50,[5],1.7 µM (active)
same,EC50,[6],> 60 µM (not active)
same,IC50,Cysteine protease ATG4B,17.1 µM (active)
same,IC50,Phospholipase A2,15.5 µM (active)
same,IC50,Vero,> 25 µM (active)
same,IC50,cells [7],8.94 µM (active)
FC(F)(F)c1cccnc1Oc1ccc(C2=NCCS2)cc1,EC50,Melanocortin receptor 4,> 89.1 µM (inactive)
N=c1c(-c2nc3ccccc3[nH]2)cc(C(=O)c2ccco2)nn1-c1ccccc1,IC50,Protein Wnt-3a,16.8 µM (active)
Cc1cc(-c2ccccc2)cc(-c2ccccc2)[n+]1C,IC50,Protein Wnt-3a,5.02 µM (active)
Cc1cccc(N=C(S)Nc2ccc(Oc3ccccc3)cc2)n1,IC50,Cysteine protease ATG4B,22.5 µM (inactive)
same,IC50,Phospholipase A2,16.8 µM (active)
CCCCOCCOP(=O)(OCCOCCCC)OCCOCCCC,AC50,Cytochrome P450 3A4 [8],25.1 µM (inconclusive)
same,AC50,[9],50.1 µM (inconclusive)
Cc1cccc2c1N(CCOc1ccc(C(C)(C)C)cc1)C(=O)C2=O,IC50,Cysteine protease ATG4B,5.76 µM (active)
same,IC50,Phospholipase A2,4.75 µM (active)
O=C(Nc1ccc(O)cc1)c1c(O)nc2c(c1O)CCCC2,AC50,HeLa,76 µM (active)
COC(=O)C1CCc2c(ccc3c2CCCC3)C1=O (configuration not stated),AC50,HeLa,> 350 µM (inactive)
COc1cc2c3c(c1OC)Oc1ccc(cc1)C[C@H]1c4c(cc(OC)c(OC)c4Oc4ccc(cc4)C[C@@H]3N(C)CC2)CCN1C,AC50,Escherichia coli,25.2 µM (active)
O=C1NC(=S)S/C1=C\c1cc(Cl)cc(Cl)c1O,IC50,Cysteine protease ATG4B,3.47 µM (active)
same,IC50,Phospholipase A2,14.8 µM (active)
same,EC50,[10],7.19 µM (active)
same,CC50,[11],100 µM (active)
same,IC50,[12],65.4 µM (active)
CC(C)(C)c1ccc(OCC2CO2)cc1 (configuration not stated),AC50,[9],12.6 µM (inconclusive)
Cc1ccc(C(=O)Nc2ccc(C(=O)N/N=C/c3cccnc3)cc2)cc1,IC50,[13],30.5 µM (active)
same,IC50,[14],> 100 µM (inactive)
same,IC50,Prothrombin,> 100 µM (inactive)
COc1ccc2[nH]c(C(=O)N/N=C/c3ccccc3OC)cc2c1,EC50,cells [15],> 350 µM (not active)
same,EC50,cells [16],> 350 µM (not active)
same,AC50,[17],2.17 µM (active)
COc1ccc(C#Cc2ccc3c(c2)O[C@@H](CN(C)C(=O)Nc2cccc(OC)c2)[C@H](C)CN([C@@H](C)CO)S3(=O)=O)cc1,IC50,[13],30.5 µM (active)
same,IC50,[14],> 100 µM (inactive)
same,IC50,Prothrombin,42.8 µM (active)
same,AC50,[18],3.01 µM (active)
O=C(N[C@@H](Cc1ccccc1)C(=O)CCl)OCc1ccccc1,IC50,[19],> 80 µM (inactive)
same,AC50,Cytochrome P450 2D6,39.8 µM (inconclusive)
same,AC50,Cytochrome P450 3A4 [20],1.26 µM (inconclusive)
same,AC50,Cytochrome P450 2C9,12.6 µM (inconclusive)
same,AC50,[9],25.1 µM (inconclusive)
Oc1ccc(/C=N/n2c(S)nnc2COc2ccccc2)c(O)c1,AC50,[17],0.796 µM (active)
Cc1ccc(/N=c2\oc3cc(O)ccc3cc2C(N)=O)cc1,IC50,Large T antigen,33.8 µM (active)
same,EC50,[5],3.69 µM (active)
same,EC50,[6],> 60 µM (not active)
same,AC50,[17],0.074 µM (active)
CCCN(CCC)[C@@H]1CCc2cccc(O)c2C1,AC50,[9],15.8 µM (inconclusive)
O=C(O)C1C2CCC(O2)C1C(=O)O (configuration not stated),AC50,[9],1.26 µM (inconclusive)
ClC(Cl)(Cl)C(Cl)(Cl)Cl [HEXACHLOROETHANE],AC50,[9],39.8 µM (inconclusive)
